Test results taken from patent publication US6534525B1, “2-substituted piperidine analogs and their use as subtype-selective NMDA receptor antagonists” (Warner-Lambert & Company, priority 1995, dated 2003).

How the values were obtained:
[1] = molecular target: NMDA receptor subunits 1A/2A (NR1A+NR2A) (Rattus norvegicus, UniProt P35439+Q00959); test: Electrophysiological assay at cloned NMDA receptor subunits expressed in Xenopus oocytes, 1A/2A; format: cell-based; conditions: cloned rat NMDA receptor in Xenopus oocytes, two-electrode voltage clamp, currents activated by glutamate and glycine; read-out: Subunits (IC50(μM)) 1A/2A
Sequence of NMDA receptor subunits 1A/2A (NR1A+NR2A) (Q00959 23-1464, other chains not shown): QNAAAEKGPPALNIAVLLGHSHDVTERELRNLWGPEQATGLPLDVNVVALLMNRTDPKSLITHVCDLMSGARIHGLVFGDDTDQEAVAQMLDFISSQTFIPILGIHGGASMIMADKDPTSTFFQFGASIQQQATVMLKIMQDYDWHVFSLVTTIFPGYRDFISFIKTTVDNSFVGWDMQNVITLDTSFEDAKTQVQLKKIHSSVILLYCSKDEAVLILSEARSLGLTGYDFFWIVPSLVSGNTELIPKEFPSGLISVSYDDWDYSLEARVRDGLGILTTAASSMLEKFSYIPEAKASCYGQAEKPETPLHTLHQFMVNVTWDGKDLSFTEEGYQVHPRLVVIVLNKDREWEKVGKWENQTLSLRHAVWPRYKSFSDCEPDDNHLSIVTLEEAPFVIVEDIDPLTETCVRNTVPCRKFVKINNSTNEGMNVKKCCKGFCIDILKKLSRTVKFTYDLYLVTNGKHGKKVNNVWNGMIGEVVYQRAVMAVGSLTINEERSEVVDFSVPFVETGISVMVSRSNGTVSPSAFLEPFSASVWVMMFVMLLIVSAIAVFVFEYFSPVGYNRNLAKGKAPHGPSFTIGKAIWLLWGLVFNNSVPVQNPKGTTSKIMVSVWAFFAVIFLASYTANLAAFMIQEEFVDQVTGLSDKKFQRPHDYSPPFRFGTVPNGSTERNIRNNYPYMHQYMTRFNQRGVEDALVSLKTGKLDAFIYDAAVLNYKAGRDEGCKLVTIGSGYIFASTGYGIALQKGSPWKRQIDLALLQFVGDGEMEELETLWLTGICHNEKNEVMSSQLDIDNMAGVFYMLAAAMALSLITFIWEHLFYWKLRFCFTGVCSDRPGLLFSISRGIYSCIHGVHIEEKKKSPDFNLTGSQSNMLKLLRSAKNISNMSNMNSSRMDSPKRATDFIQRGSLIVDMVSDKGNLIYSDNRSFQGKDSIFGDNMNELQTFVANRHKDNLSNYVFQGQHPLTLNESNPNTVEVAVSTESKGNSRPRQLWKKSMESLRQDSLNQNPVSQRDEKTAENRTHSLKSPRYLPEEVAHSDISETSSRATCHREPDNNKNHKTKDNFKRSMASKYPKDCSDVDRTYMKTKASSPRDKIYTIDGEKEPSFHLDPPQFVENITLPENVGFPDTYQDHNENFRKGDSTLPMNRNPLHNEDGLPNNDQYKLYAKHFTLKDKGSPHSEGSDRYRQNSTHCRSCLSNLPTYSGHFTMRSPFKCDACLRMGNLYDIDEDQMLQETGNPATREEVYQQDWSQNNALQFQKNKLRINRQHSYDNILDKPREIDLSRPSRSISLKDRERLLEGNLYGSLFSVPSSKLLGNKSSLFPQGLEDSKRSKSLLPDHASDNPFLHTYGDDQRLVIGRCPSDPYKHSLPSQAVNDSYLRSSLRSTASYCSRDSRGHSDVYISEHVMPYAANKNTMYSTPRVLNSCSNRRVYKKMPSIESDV
Experimental: (§1) Electrophysiological Assays at NMDA Receptor Subunits
(§2) The clones were transformed into appropriate host bacteria and plasmid preparations were made with conventional DNA purification techniques. A sample of each clone was linearized by restriction enzyme digestion and cRNA was synthesized with T3 RNA polymerase. The cRNA was diluted to 400 ng/μl and stored in 1 μl aliquots at −80° C. until injection.
(§3) The Xenopus oocyte Expression System
(§4) Follicle-enclosed oocytes were micro-injected with 1:1 mixtures of cRNA:NR1A+NR2A, 2B, 2C or 2D; injecting ˜2,5, or 20 ng of RNA encoding each receptor subunit. NR1A encoding cRNA was injected alone at ˜20 ng. Oocytes were stored in Barth's medium containing (in mM):NaCl, 88; KCl, 1; CaCl2, 0.41; Ca(NO3)2, 0.33; MgSO4, 0.82 NaHCO3, 2.4; HEPES 5, pH 7.4, with 0.1 mg/ml gentamicin sulphate. While oocytes were still surrounded by enveloping ovarian tissues the Barth's medium was supplemented with 0.1% bovine serum.
(§5) Electrical recordings were made using a conventional two-electrode voltage clamp (Dagan TEV-200) over periods ranging between 3-14 days following injection. […] Drugs were applied by bath perfusion. Using oocytes expressing different subunit combinations of NMDA receptor, NMDA currents were activated by co-application of glutamate and glycine. Inhibitory potency of the novel antagonists was assessed on responses elicited by fixed concentrations of glutamate and glycine, by measuring reductions in current induced by progressively increasing concentrations of antagonists.
(§6) Concentration-inhibition curves were fit with equation 1.
(§7) in which Icontrol is the current evoked by agonists alone, pIC50=−log IC50, IC50 is the concentration of antagonist that produces half maximal inhibition, and n is the slope factor. […] For incomplete curves analysis by fitting was unreliable and IC50 values were calculated by simple regression over linear portions of the curves (Origin: Microcal Software).

[2] = molecular target: NMDA receptor subunits 1A/2B (NR1A+NR2B) (Rattus norvegicus, UniProt P35439+Q00960); test: Electrophysiological assay at cloned NMDA receptor subunits expressed in Xenopus oocytes, 1A/2B; format: cell-based; conditions: cloned rat NMDA receptor in Xenopus oocytes, two-electrode voltage clamp, currents activated by glutamate and glycine; read-out: Subunits (IC50(μM)) 1A/2B
Sequence of NMDA receptor subunits 1A/2B (NR1A+NR2B) (Q00960 27-1482, other chains not shown): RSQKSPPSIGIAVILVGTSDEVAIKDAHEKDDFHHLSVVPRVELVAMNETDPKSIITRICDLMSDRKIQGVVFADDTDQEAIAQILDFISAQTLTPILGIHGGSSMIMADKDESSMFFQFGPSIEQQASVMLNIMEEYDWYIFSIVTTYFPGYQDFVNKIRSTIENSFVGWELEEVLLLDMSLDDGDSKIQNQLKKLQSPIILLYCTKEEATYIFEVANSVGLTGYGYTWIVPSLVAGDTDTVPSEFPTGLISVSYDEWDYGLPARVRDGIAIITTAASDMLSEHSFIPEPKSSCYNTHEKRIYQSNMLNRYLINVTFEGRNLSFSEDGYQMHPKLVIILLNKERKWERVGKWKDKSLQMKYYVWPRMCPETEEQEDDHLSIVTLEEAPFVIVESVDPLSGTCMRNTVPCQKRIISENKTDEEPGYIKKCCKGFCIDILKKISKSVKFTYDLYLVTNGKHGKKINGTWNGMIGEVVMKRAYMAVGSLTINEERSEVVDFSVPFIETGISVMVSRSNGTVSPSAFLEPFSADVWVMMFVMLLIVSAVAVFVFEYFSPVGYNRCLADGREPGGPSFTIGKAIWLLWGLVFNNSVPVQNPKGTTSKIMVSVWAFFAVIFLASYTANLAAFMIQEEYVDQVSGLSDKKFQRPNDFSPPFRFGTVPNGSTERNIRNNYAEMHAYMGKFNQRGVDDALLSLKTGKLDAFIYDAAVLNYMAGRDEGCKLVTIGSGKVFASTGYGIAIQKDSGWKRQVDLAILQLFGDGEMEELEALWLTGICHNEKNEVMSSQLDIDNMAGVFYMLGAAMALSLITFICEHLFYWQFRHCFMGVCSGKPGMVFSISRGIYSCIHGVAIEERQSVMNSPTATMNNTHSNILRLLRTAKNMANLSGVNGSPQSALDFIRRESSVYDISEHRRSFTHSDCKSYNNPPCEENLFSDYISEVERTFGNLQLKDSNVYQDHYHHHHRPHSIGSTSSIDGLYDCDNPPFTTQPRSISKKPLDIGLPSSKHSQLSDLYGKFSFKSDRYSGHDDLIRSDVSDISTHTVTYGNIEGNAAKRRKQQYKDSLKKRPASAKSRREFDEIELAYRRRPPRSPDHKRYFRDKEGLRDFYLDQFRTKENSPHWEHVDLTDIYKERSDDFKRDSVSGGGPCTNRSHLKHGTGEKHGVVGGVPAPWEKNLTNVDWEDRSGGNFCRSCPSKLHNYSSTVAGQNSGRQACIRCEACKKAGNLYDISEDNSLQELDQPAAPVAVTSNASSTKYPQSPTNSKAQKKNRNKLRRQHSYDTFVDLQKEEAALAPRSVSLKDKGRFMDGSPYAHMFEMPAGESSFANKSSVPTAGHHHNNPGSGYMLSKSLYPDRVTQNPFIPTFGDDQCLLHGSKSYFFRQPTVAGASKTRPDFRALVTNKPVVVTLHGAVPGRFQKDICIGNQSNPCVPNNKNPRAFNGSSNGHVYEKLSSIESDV
Experimental: as §1, §2, §3, §4, §5, §6, §7

[3] = molecular target: NMDA receptor subunits 1A/2C (NR1A+NR2C) (Rattus norvegicus, UniProt P35439+Q00961); test: Electrophysiological assay at cloned NMDA receptor subunits expressed in Xenopus oocytes, 1A/2C; format: cell-based; conditions: cloned rat NMDA receptor in Xenopus oocytes, two-electrode voltage clamp, currents activated by glutamate and glycine; read-out: Subunits (IC50(μM)) 1A/2C
Sequence of NMDA receptor subunits 1A/2C (NR1A+NR2C) (Q00961 20-1237, other chains not shown): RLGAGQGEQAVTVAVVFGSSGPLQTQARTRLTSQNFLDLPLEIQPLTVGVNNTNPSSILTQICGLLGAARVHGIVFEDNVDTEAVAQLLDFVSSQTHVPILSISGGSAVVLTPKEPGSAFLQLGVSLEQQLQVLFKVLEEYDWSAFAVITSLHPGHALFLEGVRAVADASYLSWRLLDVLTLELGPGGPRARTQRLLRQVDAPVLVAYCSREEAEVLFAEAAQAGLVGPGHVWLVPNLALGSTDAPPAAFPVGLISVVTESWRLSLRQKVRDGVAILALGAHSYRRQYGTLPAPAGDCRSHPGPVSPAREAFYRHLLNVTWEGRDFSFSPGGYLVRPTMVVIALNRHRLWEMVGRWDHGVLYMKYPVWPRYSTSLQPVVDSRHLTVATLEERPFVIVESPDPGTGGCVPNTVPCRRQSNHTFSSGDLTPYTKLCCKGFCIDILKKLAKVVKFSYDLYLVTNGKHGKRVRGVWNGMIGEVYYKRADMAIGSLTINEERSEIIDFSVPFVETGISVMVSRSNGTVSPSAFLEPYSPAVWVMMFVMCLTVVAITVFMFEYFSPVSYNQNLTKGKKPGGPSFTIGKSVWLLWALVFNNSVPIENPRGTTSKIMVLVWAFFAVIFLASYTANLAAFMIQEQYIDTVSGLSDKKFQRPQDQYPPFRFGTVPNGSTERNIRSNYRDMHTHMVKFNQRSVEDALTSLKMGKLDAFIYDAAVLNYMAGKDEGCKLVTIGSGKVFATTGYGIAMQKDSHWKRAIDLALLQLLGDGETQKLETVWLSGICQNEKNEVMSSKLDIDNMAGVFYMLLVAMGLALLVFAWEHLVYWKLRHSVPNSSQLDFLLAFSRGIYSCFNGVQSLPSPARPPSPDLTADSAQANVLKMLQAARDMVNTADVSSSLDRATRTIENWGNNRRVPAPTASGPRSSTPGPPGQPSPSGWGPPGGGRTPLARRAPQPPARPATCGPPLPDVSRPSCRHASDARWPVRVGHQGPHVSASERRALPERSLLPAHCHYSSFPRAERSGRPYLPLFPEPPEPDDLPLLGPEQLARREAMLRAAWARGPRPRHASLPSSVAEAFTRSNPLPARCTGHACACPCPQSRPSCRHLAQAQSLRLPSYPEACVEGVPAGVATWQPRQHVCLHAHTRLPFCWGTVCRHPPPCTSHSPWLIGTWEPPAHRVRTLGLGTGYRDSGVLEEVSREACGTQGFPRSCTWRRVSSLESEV
Experimental: as §1, §2, §3, §4, §5, §6, §7

[4] = molecular target: NMDA receptor subunits 1A/2D (NR1A+NR2D) (Rattus norvegicus, UniProt P35439+Q62645); test: Electrophysiological assay at cloned NMDA receptor subunits expressed in Xenopus oocytes, 1A/2D; format: cell-based; conditions: two-electrode voltage clamp, currents activated by glutamate and glycine
Source text: Electrophysiological Assays at NMDA Receptor Subunits […]
cDNA clones encoding the NR1A, NR2A, NR2B, NR2C and NR2D rat NMDA receptor subtypes were provided by Dr. P. H. Seeburg (see, Morivoshi et al., Nature (Lond.) 354:31-37 (1991); Kutsuwada et al., Nature (Lond.) 358:36-41 (1992) Monyer et al., Science (Washington. D.C.) 256:1217-1221 (1992); Ikeda et al., FEBS Lett. 313:34-38 (1992); Ishii et al., J. Biol. Chem. 268:2836-2843 (1993) for details of these clones or their mouse homologs). The clones were transformed into appropriate host bacteria and plasmid preparations were made with conventional DNA purification techniques. A sample of each clone was linearized by restriction enzyme digestion and cRNA was synthesized with T3 RNA polymerase. The cRNA was diluted to 400 ng/μl and stored in 1 μl aliquots at −80° C. until injection.
The Xenopus oocyte Expression System […]
Electrical recordings were made using a conventional two-electrode voltage clamp (Dagan TEV-200) over periods ranging between 3-14 days following injection. […] Inhibitory potency of the novel antagonists was assessed on responses elicited by fixed concentrations of glutamate and glycine, by measuring reductions in current induced by progressively increasing concentrations of antagonists. […]

[5] = tested on: maximal electroshock-induced seizures; test: Maximal electroshock-induced seizures (MES); format: in vivo, mice; conditions: Mus musculus; mice, tonic hindlimb extensor response, 50 mA corneal electrodes; read-out: MES (ED50)
Experimental: Maximal Electroshock-induced Seizures
Seizures were induced by application of current (50 mA, 60 pulses/sec, 0.8 sec pulse width, 1 sec duration, d.c.) through saline-coated corneal electrodes using a Ugo Basile ECT device (Model 7801). […] A tonic seizure was defined as a hindlimb extension in excess of 90 degrees from the plane of the body. Results were treated in a quantal manner.

IC50 [1]: 13 µM | IC50 [2]: 35 µM | IC50 [3]: 110 µM | IC50 [4]: > 300 µM
Compound: CCOc1ccccc1OCC1CCCCN1CCCOc1ccccc1 (centres unmarked) [Example 17, 2-[(2-Ethoxy)phenyoxy]methyl-1-(3-phenoxy)propylpiperidine]
ED50 [5]: 1 mg/kg
